Results reported in paper PMC11882969 (Nature Communications, 2025).

Target: CB1 (rCB1) (Rattus norvegicus, UniProt P20272)
Assay: Single-point radioligand displacement screen
Type: binding
Conditions: for % 1H-CP-55,940 displacement (mean) from single point screen: 10 µM, 1 µM or 300 nM by cell colour (not visible); for rep1_displacement / rep2_displacement / rep3_displacement: Figure 1c source data; for rep1_displacement: replicate 1; for rep2_displacement: replicate 2; for rep3_displacement: replicate 3

Chain of CB1 (rCB1) (P20272 whole entry): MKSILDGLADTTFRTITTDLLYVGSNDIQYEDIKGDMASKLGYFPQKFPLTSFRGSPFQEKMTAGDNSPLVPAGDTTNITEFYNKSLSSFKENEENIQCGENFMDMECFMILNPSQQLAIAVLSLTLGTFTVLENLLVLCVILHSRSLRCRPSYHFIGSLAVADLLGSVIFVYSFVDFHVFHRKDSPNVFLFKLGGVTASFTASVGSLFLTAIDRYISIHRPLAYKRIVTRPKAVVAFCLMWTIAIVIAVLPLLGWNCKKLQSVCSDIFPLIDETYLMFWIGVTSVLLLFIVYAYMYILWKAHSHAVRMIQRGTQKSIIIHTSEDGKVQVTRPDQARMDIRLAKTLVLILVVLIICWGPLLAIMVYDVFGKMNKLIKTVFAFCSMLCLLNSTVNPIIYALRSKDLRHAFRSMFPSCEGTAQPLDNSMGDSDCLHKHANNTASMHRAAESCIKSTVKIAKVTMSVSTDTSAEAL

Structure (SMILES)	% 1H-CP-55,940 displacement (mean) from single point screen	rep1_displacement	rep2_displacement	rep3_displacement
O=C(OCc1nc2ccccc2s1)c1c2c(nc3ccccc13)CCC2 [compound 47700]	27.24%	29.5	33.4	18.9
COCCOc1cc(C(=O)N2CCCC(CC3CCOC3)C2)nc2ccccc12 (centres unmarked) [compound 49667]	4.27%	10.3	4.1	-1.6
O=C(OCC1CSc2ccccc2O1)c1cc(Oc2ccccc2)ccn1 (centres unmarked) [compound 50267]	15.53%			
C=CCn1c(SC(C)COC)nc2cc(-c3ccccc3)sc2c1=O (centres unmarked) [compound 50746]	26.93%	27.8	26.8	26.1
Cc1nc(CC2CC2)oc1-c1nc(Cc2cc(Br)c3c(c2)OCO3)no1 [compound 53217]	14.33%			
COC(=O)C(NC(=O)c1cn(Cc2ccccc2)nn1)c1cccs1 (centres unmarked) [compound 54064]	4.29%			
CN(CCOc1ccc(Br)cc1)c1ncnc(-c2ccccc2)n1 [compound 55901]	23.61%	24.5	26.2	20.1
CC(C)c1ncc(Cl)c(C(=O)N2CC(Cc3ccccc3Cl)C2)n1 [compound 56513]	36.74%	17.6	25.1	67.5
COC(=O)[C@@H](NC(=O)c1cc(C)n(-c2cccc(F)c2)n1)c1ccc(OC)cc1 [compound 59513]	10.54%			
O=c1c2cnn(-c3ccccc3)c2nnn1Cc1cc(Cl)ccc1Cl [compound 59552]	38.03%	36.6	38.4	39.1
COC(=O)C(NC(=O)c1cc(C)n(-c2ccccc2)n1)c1cccs1 (centres unmarked) [compound 59643]	4.63%			
COC(=O)C(NC(=O)c1csc(Cc2ccccc2)n1)c1cccs1 (centres unmarked) [compound 61815]	32.97%			
Cc1c(C(=O)OCC2CSc3ccccc3O2)nnn1Cc1ccc(F)cc1 (centres unmarked) [compound 61926]	64.39%			
COC(=O)C(OC(=O)c1cc(C)n(-c2ccc(F)cc2)n1)c1ccccc1 (centres unmarked) [compound 62406]	-3.66%			
CCOC(=O)C1(NC(=O)c2cc(C)n(-c3cccc(Cl)c3)n2)CCCCC1 [compound 64801]	31.60%			
CCOC(=O)C(NC(=O)c1cc(C)n(-c2cccc(F)c2)n1)C1CCOCC1 (centres unmarked) [compound 64854]	-2.51%			
COc1cc(C(=O)OCC2CCCN2c2ccc(C)nn2)ccc1Cl (centres unmarked) [compound 65703]	17.38%	11.4	18.4	22.4
Cn1ncc2c(N3CCC(COCc4ccccc4)C3)nc(Cl)nc21 (centres unmarked) [compound 66978]	-5.01%	10	-21.7	-3.3
O=C(OCc1ncnn1-c1ccccc1)c1csc(Cc2ccccc2F)n1 [compound 67565]	8.02%	8		8
COC(=O)[C@@H](NC(=O)c1cc(C)n(-c2cccc(Cl)c2)n1)c1ccc(OC)cc1 [compound 69543]	10.83%			
CC1OCCC12CN(C(=O)c1oc3ccccc3c1COc1ccccc1)CCO2 (centres unmarked) [compound 70889]	46.62%	47.8	46.3	45.8
